Measured values taken from patent US20120041030A1, “PYRIDINE THIO DERIVATIVE, AND PHARMACEUTICAL COMPOSITION WHICH CONTAINS SAME AND HAS ANTI-HELICOBACTER PYLORI ACTION” (priority 2009, published 2012).
Values after ≈ are worked out from the molar mass of the structure shown. Like-named read-outs stand apart in the source and are kept apart here.

What was measured:
Format in all cases: cell-based
[1] = test system: Helicobacter pylori (ATCC 43504); assay: Antibacterial test (MIC) against Helicobacter pylori; settings: for minimum inhibitory concentration (MIC): Helicobacter pylori ATCC 43504; for MIC: Helicobacter pylori
Protocol: (§1) ATCC43504 which was a standard bacterial strain was used as Helicobacter pylori (H. pylori) to perform the test in vitro in a Columbia agar medium. The bacteria were cultured at 37° C. and a pH of 7.0 for three days. The minimum inhibitory concentration (MIC, μg/ml) was found on the fourth day. Each sample was dissolved in 1% DMSO to use. […] As bacteria for comparison, Gram negative bacteria, for example, E. coli (ATCC 10536 ATCC 25922), Klebsiella pneumonia (ATCC 10031), Proteus vulgaris (ATCC 13315), Pseudomonas aeruginosa (ATCC 9027) and Salmonella typhimurium (ATCC 13311) were used and Gram positive bacteria, for example, Staphylococcus aureus, MRSA (ATCC 33591), Staphylococcus epidermidis (ATCC 12228), Streptococcus pneumonia (ATCC 6301), Mycobacterium ranae (ATCC 110) and Enterococcus faecalis (VRE, ATCC 51575) were used.
(§2) The values in each table show minimum inhibitory concentrations (MIC, μg/ml).

[2] = test system: Salmonella typhimurium (ATCC 13311); assay: Antibacterial test (MIC), comparison bacteria; settings: Gram negative; for MIC: Salmonella enterica, read-out: minimum inhibitory concentration (MIC)
Protocol: as §1, §2

[3] = test system: Pseudomonas aeruginosa (ATCC 9027); assay: Antibacterial test (MIC), comparison bacteria; settings: for minimum inhibitory concentration (MIC): Gram negative; for MIC: ATCC9027, Gram negative, read-out: minimum inhibitory concentration (MIC)
Protocol: as §1, §2

[4] = test system: Staphylococcus aureus (MRSA, ATCC 33591); assay: Antibacterial test (MIC), comparison bacteria; settings: Gram positive; for MIC: read-out: minimum inhibitory concentration (MIC)
Protocol: as §1, §2

[5] = test system: Enterococcus faecalis (VRE, ATCC 51575); assay: Antibacterial test (MIC), comparison bacteria; settings: Gram positive; for MIC: read-out: minimum inhibitory concentration (MIC)
Protocol: as §1, §2

[6] = test system: Streptococcus pneumonia (ATCC 6301); assay: Antibacterial test (MIC), comparison bacteria; settings: for minimum inhibitory concentration (MIC): Gram positive; for MIC: Streptococcus pneumoniae, ATCC6301, Gram positive, read-out: minimum inhibitory concentration (MIC)
Protocol: as §1, §2

[7] = test system: Escherichia coli (ATCC 25922); assay: Antibacterial test (MIC), comparison bacteria; settings: for MIC: ATCC25922, Gram negative, read-out: minimum inhibitory concentration (MIC); for minimum inhibitory concentration (MIC): Gram negative
Protocol: as §1, §2

[8] = test system: Escherichia coli (ATCC 10536); assay: Antibacterial test (MIC), comparison bacteria; settings: for MIC: ATCC10536, Gram negative, read-out: minimum inhibitory concentration (MIC); for minimum inhibitory concentration (MIC): Gram negative
Protocol: as §1, §2

[9] = test system: Proteus vulgaris (ATCC 13315); assay: Antibacterial test (MIC), comparison bacteria; settings: for MIC: ATCC13315, Gram negative, read-out: minimum inhibitory concentration (MIC); for minimum inhibitory concentration (MIC): Gram negative
Protocol: as §1, §2

[10] = test system: Klebsiella pneumonia (ATCC 10031); assay: Antibacterial test (MIC), comparison bacteria; settings: for MIC: Klebsiella pneumoniae, ATCC10031, Gram negative, read-out: minimum inhibitory concentration (MIC); for minimum inhibitory concentration (MIC): Gram negative
Protocol: as §1, §2

[11] = test system: Mycobacterium ranae (ATCC 110); assay: Antibacterial test (MIC), comparison bacteria; settings: for MIC: ATCC110, Gram positive, read-out: minimum inhibitory concentration (MIC); for minimum inhibitory concentration (MIC): Gram positive
Protocol: as §1, §2

[12] = test system: Staphylococcus epidermidis (ATCC 12228); assay: Antibacterial test (MIC), comparison bacteria; settings: for MIC: ATCC12228, Gram positive, read-out: minimum inhibitory concentration (MIC); for minimum inhibitory concentration (MIC): Gram positive
Protocol: as §1, §2

[13] = Columbia agar medium, 37° C., pH 7.0, cultured three days, MIC found on the fourth day
[14] = ATCC43504, 72 h, pH 7, Helicobacter pylori ATCC 43504, Columbia agar medium, 37° C., pH 7.0, cultured three days, MIC found on the fourth day, read-out: minimum inhibitory concentration (MIC)

Row | Structure (SMILES) | minimum inhibitory concentration (MIC) [1, 13] | minimum inhibitory concentration (MIC) [2] | minimum inhibitory concentration (MIC) [3] | minimum inhibitory concentration (MIC) [4] | minimum inhibitory concentration (MIC) [5] | minimum inhibitory concentration (MIC) [6] | MIC [1, 14] | MIC [2] | MIC [3] | MIC [7] | MIC [4] | MIC [8] | MIC [5] | MIC [9] | MIC [6] | MIC [10] | MIC [11] | MIC [12] | minimum inhibitory concentration (MIC) [10] | minimum inhibitory concentration (MIC) [11] | other results
1 | CC1(C)S[C@@H]2[C@H](NC(=O)[C@H](N)c3ccc(O)cc3)C(=O)N2[C@H]1C(=O)O [AMPC, Amoxicillin, reference compound] | 0.06 µg/mL (≈ 0.164 µM) | 0.3 µg/mL (≈ 0.821 µM) | 100< μg/ml | 0.1 µg/mL (≈ 0.274 µM) | 0.3 µg/mL (≈ 0.821 µM) | 0.01 µg/mL (≈ 0.0274 µM) |  |  |  |  |  |  |  |  |  |  |  |  |  |  | 
2 | CC[C@H]1OC(=O)[C@H](C)[C@@H](O[C@H]2C[C@@](C)(OC)[C@@H](O)[C@H](C)O2)[C@H](C)[C@@H](O[C@@H]2O[C@H](C)C[C@H](N(C)C)[C@H]2O)[C@](C)(OC)C[C@@H](C)C(=O)[C@H](C)[C@@H](O)[C@]1(C)O [CAM, Clarithromycin, reference compound] |  |  |  |  |  |  | 0.1 µg/mL (≈ 0.134 µM) | 25 µg/mL (≈ 33.4 µM) | > 100 µg/mL | 50 µg/mL (≈ 66.8 µM) | 0.1 µg/mL (≈ 0.134 µM) | 50 µg/mL (≈ 66.8 µM) | 0.1 µg/mL (≈ 0.134 µM) | 100 µg/mL (≈ 134 µM) | 0.02 µg/mL (≈ 0.0267 µM) |  |  |  |  |  | 
3 | COCCCCSc1ccnc(SCc2nc3ccccc3[nH]2)c1C.Cl [Example 1, 2-[[[4-[(4-methoxy-butyl]thio]-3-methyl-2-pyridyl]thio]methyl]-1H-benzimidazole hydrochloride] |  |  |  |  |  |  | ≤ 0.03 µg/mL | > 100 µg/mL | > 100 µg/mL | > 100 µg/mL | > 100 µg/mL | > 100 µg/mL | > 100 µg/mL | > 100 µg/mL | > 100 µg/mL | > 100 µg/mL | > 100 µg/mL | > 100 µg/mL |  |  | 
4 | Cc1c(SCCCCCCCCO)ccnc1SCc1nc2ccccc2[nH]1 [Example 2, 2-[[[4-[(8-hydroxy-octyl)thio]-3-methyl-2-pyridyl]thio]methyl]-1H-benzimidazole] |  |  |  |  |  |  |  | > 100 µg/mL | > 100 µg/mL | > 100 µg/mL | > 100 µg/mL | > 100 µg/mL | > 100 µg/mL | > 100 µg/mL | > 100 µg/mL | > 100 µg/mL | > 100 µg/mL | > 100 µg/mL |  |  | MIC ([1]; summary of Tables 2 and 3): 0.003 µg
5 | COCCCCCCCCSc1ccnc(SCc2nc3ccccc3[nH]2)c1C.Cl [Example 3, 2-[[[4-[(8-methoxy-1-octyl]thio]-3-methyl-2-pyridyl]thio]methyl]-1H-benzimidazole hydrochloride] |  |  |  |  |  |  | 0.1 µg/mL | > 100 µg/mL | > 100 µg/mL | > 100 µg/mL | > 100 µg/mL | > 100 µg/mL | > 100 µg/mL | > 100 µg/mL | > 100 µg/mL | > 100 µg/mL | > 100 µg/mL | > 100 µg/mL |  |  | 
6 | CCCOc1ccnc(SCc2nc3ccccc3[nH]2)c1C.Cl [Example 4, 2-[[(4-n-propoxy-3-methyl-2-pyridyl)thio]-methyl]-1H-benzimidazole hydrochloride] |  |  |  |  |  |  | 0.3 µg/mL | > 100 µg/mL | > 100 µg/mL | > 100 µg/mL | > 100 µg/mL | > 100 µg/mL | > 100 µg/mL | > 100 µg/mL | > 100 µg/mL | > 100 µg/mL | > 100 µg/mL | > 100 µg/mL |  |  | 
7 | CSc1ccnc(SCc2nc3ccccc3[nH]2)c1C.Cl [Example 5, 2-[[(4-thiomethyl-3-methyl-2-pyridyl)thio]-methyl]-1H-benzimidazole hydrochloride] | 3.0 µg/mL | 100< μg/ml | 100< μg/ml | 100< μg/ml | 100< μg/ml | 100< μg/ml |  |  |  |  |  |  |  |  |  |  |  |  | 100< μg/ml | 100< μg/ml | minimum inhibitory concentration (MIC) [7]: 100< μg/ml; minimum inhibitory concentration (MIC) [8]: 100< μg/ml; minimum inhibitory concentration (MIC) [12]: 100< μg/ml; minimum inhibitory concentration (MIC) [9]: 100< μg/ml
8 | CCCSc1ccnc(SCc2nc3ccccc3[nH]2)c1C.Cl [Example 6, 2-[[(4-thiopropyl-3-methyl-2-pyridyl)thio]-methyl]-1H-benzimidazole hydrochloride] | 0.3 µg/mL | 100< μg/ml | 100< μg/ml | 100< μg/ml | 100< μg/ml | 100< μg/ml |  |  |  |  |  |  |  |  |  |  |  |  | 100< μg/ml | 100< μg/ml | minimum inhibitory concentration (MIC) [7]: 100< μg/ml; minimum inhibitory concentration (MIC) [8]: 100< μg/ml; minimum inhibitory concentration (MIC) [12]: 100< μg/ml; minimum inhibitory concentration (MIC) [9]: 100< μg/ml
9 | CCCCCSc1ccnc(SCc2nc3ccccc3[nH]2)c1C [Example 7, 2-[[(4-thiopentyl-3-methyl-2-pyridyl)thio]-methyl]-1H-benzimidazole] | 0.3 µg/mL (≈ 0.839 µM) | 100< μg/ml | 100< μg/ml | 100< μg/ml | 100< μg/ml | 100< μg/ml |  |  |  |  |  |  |  |  |  |  |  |  | 100< μg/ml | 100< μg/ml | minimum inhibitory concentration (MIC) [7]: 100< μg/ml; minimum inhibitory concentration (MIC) [8]: 100< μg/ml; minimum inhibitory concentration (MIC) [12]: 100< μg/ml; minimum inhibitory concentration (MIC) [9]: 100< μg/ml
10 | Cc1c(SCCOCCOCC(F)(F)F)ccnc1SCc1nc2ccccc2[nH]1.Cl [Example 8] | 0.1 µg/mL | 100< μg/ml | 100< μg/ml | 100< μg/ml | 100< μg/ml | 100< μg/ml |  |  |  |  |  |  |  |  |  |  |  |  | 100< μg/ml | 100< μg/ml | minimum inhibitory concentration (MIC) [7]: 100< μg/ml; minimum inhibitory concentration (MIC) [8]: 100< μg/ml; minimum inhibitory concentration (MIC) [12]: 100< μg/ml; minimum inhibitory concentration (MIC) [9]: 100< μg/ml
11 | Cc1c(OCCOCCOCC(F)(F)F)ccnc1SCc1nc2ccccc2[nH]1.Cl [Example 9] | 0.3 µg/mL | 100< μg/ml | 100< μg/ml | 100< μg/ml | 100< μg/ml | 100< μg/ml |  |  |  |  |  |  |  |  |  |  |  |  | 100< μg/ml | 100< μg/ml | minimum inhibitory concentration (MIC) [7]: 100< μg/ml; minimum inhibitory concentration (MIC) [8]: 100< μg/ml; minimum inhibitory concentration (MIC) [12]: 100< μg/ml; minimum inhibitory concentration (MIC) [9]: 100< μg/ml
12 | CCCCCOc1ccnc(SCc2nc3ccccc3[nH]2)c1C.Cl [Example 10, 2-[[(4-pentyloxy-3-methyl-2-pyridyl)thio]-methyl]-1H-benzimidazole hydrochloride] |  |  |  |  |  |  | 0.1 µg/mL | > 100 µg/mL | > 100 µg/mL | > 100 µg/mL | > 100 µg/mL | > 100 µg/mL | > 100 µg/mL | > 100 µg/mL | > 100 µg/mL | > 100 µg/mL | > 100 µg/mL | > 100 µg/mL |  |  | 
13 | COCCCCCCCCOc1ccnc(SCc2nc3ccccc3[nH]2)c1C.Cl [Example 14, 2-[[[4-(8-methoxy-1-octyloxy]-3-methyl-2-pyridyl]thio]-methyl]-1H-benzimidazole hydrochloride] |  |  |  |  |  |  |  | > 100 µg/mL | > 100 µg/mL | > 100 µg/mL | > 100 µg/mL | > 100 µg/mL | > 100 µg/mL | > 100 µg/mL | > 100 µg/mL | > 100 µg/mL | > 100 µg/mL | > 100 µg/mL |  |  | 
